Source: PubChem BioAssay (NCI)
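48-hour exposure; five concentrations; linearly interpolated endpoints. At the TGI there is no net growth.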

Key:
Assay in all cases: NCI anticancer screen, dose series, 48 h
CCRF-CEM leukemia = tested on: CCRF-CEM leukemia
DLD-1 colon = tested on: DLD-1 colon
DMS 273 small cell lung = tested on: DMS 273 small cell lung
HOP-18 NSCLC = tested on: HOP-18 NSCLC
KM20L2 colon = tested on: KM20L2 colon
LXFL 529 NSCLC = tested on: LXFL 529 NSCLC
M19-MEL melanoma = tested on: M19-MEL melanoma
OVCAR-3 ovarian = tested on: OVCAR-3 ovarian
RXF-631 renal = tested on: RXF-631 renal
DMS 114 small cell lung = tested on: DMS 114 small cell lung
SNB-78 CNS = tested on: SNB-78 CNS
XF 498 CNS = tested on: XF 498 CNS

SMILES	TGI (CCRF-CEM leukemia)	TGI (DLD-1 colon)	TGI (DMS 273 small cell lung)	TGI (HOP-18 NSCLC)	TGI (KM20L2 colon)	TGI (LXFL 529 NSCLC)	TGI (M19-MEL melanoma)	TGI (OVCAR-3 ovarian)	TGI (RXF-631 renal)	TGI (DMS 114 small cell lung)	TGI (SNB-78 CNS)	TGI (XF 498 CNS)
COC(=O)c1ccc(Cc2ccc(C(=O)OC)o2)o1	> 378 µM	> 378 µM	> 378 µM	> 378 µM	> 378 µM	> 378 µM	> 378 µM	> 378 µM	> 378 µM			
COc1cc2c(cc1OC)C(=O)C(C1=C(SC(=N)N)C(=O)c3cc(OC)c(OC)cc31)C2 (centres undefined)	> 100 µM	> 100 µM	> 100 µM		> 100 µM	> 100 µM	> 100 µM	> 100 µM		> 100 µM	> 100 µM	> 100 µM
CCOC(=O)c1ccc(-n2c(SCC)nc3sc(C)c(C)c3c2=O)cc1	> 100 µM	> 100 µM	> 100 µM	> 100 µM	> 100 µM			> 100 µM		> 100 µM	> 100 µM	> 100 µM
Cn1c2cc(O)cc(O)c2c(=O)c2c([N+](=O)[O-])cccc21	> 100 µM	> 100 µM	> 100 µM	> 100 µM	> 100 µM	> 100 µM		> 100 µM	> 100 µM	> 100 µM	> 100 µM	
O=c1cc(-c2ccccc2)oc2cc(OCCSCCCCCCCCCCSCCOc3ccc4c(=O)cc(-c5ccccc5)oc4c3)ccc12	> 100 µM	> 100 µM		> 100 µM	> 100 µM	> 100 µM	> 100 µM	> 100 µM	> 100 µM	> 100 µM	> 100 µM	
COC(=O)[C@@]12OC[C@]34C([C@@H](O)C1O)[C@@]1(C)CC(=O)C(OC(=O)/C=C(/c5ccccc5)C(F)(F)F)=C(C)C1C[C@H]3OC(=O)[C@H](O)[C@H]42 (some centres undefined)	> 50 µM	31.9 µM	18 µM	> 50 µM	36.6 µM	> 50 µM	> 50 µM			22.3 µM	> 50 µM	33 µM
O=c1cc(-c2ccc(Cl)cc2)oc2cc(OCCCOc3ccc4c(=O)cc(-c5ccc(Cl)cc5)oc4c3)ccc12	> 100 µM	> 100 µM	> 100 µM	> 100 µM	> 100 µM	> 100 µM	> 100 µM	> 100 µM	> 100 µM	> 100 µM	> 100 µM	> 100 µM
CC(C)C(/C=C/c1ccc(Br)cc1)=N\NC(N)=O	> 100 µM	> 100 µM	> 100 µM		> 100 µM	> 100 µM	25.4 µM			> 100 µM	> 100 µM	> 100 µM
Cc1ccc(O)c(C(=O)CCCC(=O)c2cc(C)ccc2O)c1	> 100 µM	> 100 µM	> 100 µM	> 100 µM	> 100 µM	> 100 µM	> 100 µM			> 100 µM	> 100 µM	> 100 µM
